Where two headings read alike, the source gives them in different places.
Key:
[1] = Biodistribution of 177Lu-labeled αMSH analogues in mice bearing B16F10 mouse melanoma; assay type: in vivo, C57BL/6J mice; details: mouse, iv, total radioactivity, C57BL/6J mice, B16F10 melanoma
Protocol: (§1) The B16-F10 mouse melanoma cells were cultured and inoculated in mice as described in Example 1.
(§2) For biodistribution studies, approximately 1-2 MBq of ^177Lu-labeled αMSH analogues via tail vein under anesthesia. At 1, 4, 24, and 120 h p.i., the mice were euthanized by CO2 inhalation. Organs/tissues were harvested and the radioactivity was measured as described in Example 1.

[2] = test system: B16F10 mouse melanoma; test: as above; assay type: in vivo, C57BL/6J mice; details: C57BL/6J mice, B16F10 melanoma
Protocol: as §1, §2

Question: For `CCCC[C@H](NC(=O)CN1CCC(NC(=O)CN2CCN(CC(=O)O)CCN(CC(=O)O)CCN(CC(=O)O)CC2)CC1)C(=O)N[C@H]1CC(=O)NCCCC[C@@H](C(N)=O)N(C)C(=O)[C@H](Cc2c[nH]c3ccccc23)N(C)C(=O)[C@H](CCCNC(=N)N)N(C)C(=O)[C@@H](Cc2ccccc2)NC(=O)[C@H](Cc2c[nH]cn2)N(C)C1=O` [^177Lu-labeled CCZ01099, metal not drawn], which tissue uptake at 1 h ([1]; male, seminal glands, 1 h p.i., read-out: Biodistribution, Seminal glands) is on record?
Answer: 0.06 ± 0.02 %ID/g

Question: What about the tissue uptake at 4 h ([1]; male, seminal glands, 4 h p.i., read-out: Biodistribution, Seminal glands) of the same molecule?
Answer: 0.02 %ID/g

Question: And the tissue uptake at 24 h ([1]; male, seminal glands, 24 h p.i., read-out: Biodistribution, Seminal glands)?
Answer: 0.01 %ID/g

Question: What about the tissue uptake at 1 h ([1]; male, testes, 1 h p.i., read-out: Biodistribution, Testes) of the same molecule?
Answer: 0.13 ± 0.02 %ID/g

Question: And the tissue uptake at 4 h ([1]; male, testes, 4 h p.i., read-out: Biodistribution, Testes)?
Answer: 0.03 %ID/g

Question: What about the tissue uptake at 24 h ([1]; male, testes, 24 h p.i., read-out: Biodistribution, Testes) of the same molecule?
Answer: 0.03 %ID/g

Question: What about the tissue uptake at 120 h ([1]; male, testes, 120 h p.i., read-out: Biodistribution, Testes) of the same molecule?
Answer: 0.02 ± 0.01 %ID/g

Question: What about the tissue uptake at 1 h ([1]; adrenal glands, 1 h p.i., read-out: Biodistribution, Adrenal glands) of the same molecule?
Answer: 0.39 ± 0.13 %ID/g

Question: And the tissue uptake at 4 h ([1]; adrenal glands, 4 h p.i., read-out: Biodistribution, Adrenal glands)?
Answer: 0.19 ± 0.06 %ID/g

Question: What about the tissue uptake at 24 h ([1]; adrenal glands, 24 h p.i., read-out: Biodistribution, Adrenal glands) of the same molecule?
Answer: 0.1 ± 0.04 %ID/g

Question: And the tissue uptake at 120 h ([1]; adrenal glands, 120 h p.i., read-out: Biodistribution, Adrenal glands)?
Answer: 0.03 ± 0.03 %ID/g

Question: What about the tissue uptake at 1 h ([1]; blood, 1 h p.i., read-out: Biodistribution, Blood) of the same molecule?
Answer: 0.48 ± 0.22 %ID/g

Question: What about the tissue uptake at 4 h ([1]; blood, 4 h p.i., read-out: Biodistribution, Blood) of the same molecule?
Answer: 0.05 ± 0.01 %ID/g

Question: And the tissue uptake at 24 h ([1]; blood, 24 h p.i., read-out: Biodistribution, Blood)?
Answer: 0.01 %ID/g

Question: And the tissue uptake at 1 h ([1]; bone, 1 h p.i., read-out: Biodistribution, Bone)?
Answer: 0.13 ± 0.03 %ID/g

Question: And the tissue uptake at 4 h ([1]; bone, 4 h p.i., read-out: Biodistribution, Bone)?
Answer: 0.06 ± 0.02 %ID/g

Question: What about the tissue uptake at 24 h ([1]; bone, 24 h p.i., read-out: Biodistribution, Bone) of the same molecule?
Answer: 0.04 ± 0.01 %ID/g

Question: What about the tissue uptake at 120 h ([1]; bone, 120 h p.i., read-out: Biodistribution, Bone) of the same molecule?
Answer: 0.02 ± 0.01 %ID/g

Question: What about the tissue uptake at 1 h ([1]; brain, 1 h p.i., read-out: Biodistribution, Brain) of the same molecule?
Answer: 0.02 %ID/g

Question: What about the tissue uptake at 4 h ([1]; brain, 4 h p.i., read-out: Biodistribution, Brain) of the same molecule?
Answer: 0.01 %ID/g

Question: And the tissue uptake at 1 h ([1]; fat, 1 h p.i., read-out: Biodistribution, Fat)?
Answer: 0.06 ± 0.02 %ID/g

Question: And the tissue uptake at 4 h ([1]; fat, 4 h p.i., read-out: Biodistribution, Fat)?
Answer: 0.01 %ID/g

Question: And the tissue uptake at 24 h ([1]; fat, 24 h p.i., read-out: Biodistribution, Fat)?
Answer: 0.01 %ID/g

Question: What about the tissue uptake at 120 h ([1]; fat, 120 h p.i., read-out: Biodistribution, Fat) of the same molecule?
Answer: 0.01 %ID/g

Question: And the tissue uptake at 1 h ([1]; heart, 1 h p.i., read-out: Biodistribution, Heart)?
Answer: 0.17 ± 0.06 %ID/g

Question: And the tissue uptake at 4 h ([1]; heart, 4 h p.i., read-out: Biodistribution, Heart)?
Answer: 0.04 ± 0.01 %ID/g

Question: What about the tissue uptake at 24 h ([1]; heart, 24 h p.i., read-out: Biodistribution, Heart) of the same molecule?
Answer: 0.03 %ID/g

Question: What about the tissue uptake at 120 h ([1]; heart, 120 h p.i., read-out: Biodistribution, Heart) of the same molecule?
Answer: 0.02 %ID/g

Question: What about the tissue uptake at 1 h ([1]; intestine, 1 h p.i., read-out: Biodistribution, Intestine) of the same molecule?
Answer: 0.25 ± 0.03 %ID/g

Question: What about the tissue uptake at 4 h ([1]; intestine, 4 h p.i., read-out: Biodistribution, Intestine) of the same molecule?
Answer: 0.12 ± 0.06 %ID/g

Question: What about the tissue uptake at 24 h ([1]; intestine, 24 h p.i., read-out: Biodistribution, Intestine) of the same molecule?
Answer: 0.23 ± 0.28 %ID/g

Question: And the tissue uptake at 120 h ([1]; intestine, 120 h p.i., read-out: Biodistribution, Intestine)?
Answer: 0.12 ± 0.16 %ID/g

Question: And the tissue uptake at 1 h ([1]; kidneys, 1 h p.i., read-out: Biodistribution, Kidneys)?
Answer: 4.15 ± 0.99 %ID/g

Question: What about the tissue uptake at 4 h ([1]; kidneys, 4 h p.i., read-out: Biodistribution, Kidneys) of the same molecule?
Answer: 4.32 ± 2.06 %ID/g

Question: What about the tissue uptake at 24 h ([1]; kidneys, 24 h p.i., read-out: Biodistribution, Kidneys) of the same molecule?
Answer: 1.61 ± 0.29 %ID/g

Question: And the tissue uptake at 120 h ([1]; kidneys, 120 h p.i., read-out: Biodistribution, Kidneys)?
Answer: 0.5 ± 0.02 %ID/g

Question: What about the tissue uptake at 1 h ([1]; liver, 1 h p.i., read-out: Biodistribution, Liver) of the same molecule?
Answer: 0.41 ± 0.11 %ID/g

Question: What about the tissue uptake at 4 h ([1]; liver, 4 h p.i., read-out: Biodistribution, Liver) of the same molecule?
Answer: 0.34 ± 0.1 %ID/g

Question: What about the tissue uptake at 24 h ([1]; liver, 24 h p.i., read-out: Biodistribution, Liver) of the same molecule?
Answer: 0.32 ± 0.13 %ID/g

Question: What about the tissue uptake at 120 h ([1]; liver, 120 h p.i., read-out: Biodistribution, Liver) of the same molecule?
Answer: 0.19 ± 0.02 %ID/g

Question: And the tissue uptake at 1 h ([1]; lungs, 1 h p.i., read-out: Biodistribution, Lungs)?
Answer: 0.54 ± 0.2 %ID/g

Question: And the tissue uptake at 4 h ([1]; lungs, 4 h p.i., read-out: Biodistribution, Lungs)?
Answer: 0.17 ± 0.06 %ID/g

Question: What about the tissue uptake at 24 h ([1]; lungs, 24 h p.i., read-out: Biodistribution, Lungs) of the same molecule?
Answer: 0.07 ± 0.02 %ID/g

Question: And the tissue uptake at 120 h ([1]; lungs, 120 h p.i., read-out: Biodistribution, Lungs)?
Answer: 0.04 ± 0.01 %ID/g

Question: What about the tissue uptake at 1 h ([1]; muscle, 1 h p.i., read-out: Biodistribution, Muscle) of the same molecule?
Answer: 0.1 ± 0.04 %ID/g

Question: And the tissue uptake at 4 h ([1]; muscle, 4 h p.i., read-out: Biodistribution, Muscle)?
Answer: 0.02 %ID/g

Question: And the tissue uptake at 24 h ([1]; muscle, 24 h p.i., read-out: Biodistribution, Muscle)?
Answer: 0.01 %ID/g

Question: And the tissue uptake at 120 h ([1]; muscle, 120 h p.i., read-out: Biodistribution, Muscle)?
Answer: 0.01 %ID/g

Question: What about the tissue uptake at 1 h ([1]; pancreas, 1 h p.i., read-out: Biodistribution, Pancreas) of the same molecule?
Answer: 0.13 ± 0.05 %ID/g

Question: What about the tissue uptake at 4 h ([1]; pancreas, 4 h p.i., read-out: Biodistribution, Pancreas) of the same molecule?
Answer: 0.03 ± 0.01 %ID/g

Question: What about the tissue uptake at 24 h ([1]; pancreas, 24 h p.i., read-out: Biodistribution, Pancreas) of the same molecule?
Answer: 0.03 %ID/g

Question: And the tissue uptake at 120 h ([1]; pancreas, 120 h p.i., read-out: Biodistribution, Pancreas)?
Answer: 0.02 %ID/g

Question: What about the tissue uptake at 1 h ([1]; spleen, 1 h p.i., read-out: Biodistribution, Spleen) of the same molecule?
Answer: 0.24 ± 0.08 %ID/g

Question: And the tissue uptake at 4 h ([1]; spleen, 4 h p.i., read-out: Biodistribution, Spleen)?
Answer: 0.13 ± 0.04 %ID/g

Question: What about the tissue uptake at 24 h ([1]; spleen, 24 h p.i., read-out: Biodistribution, Spleen) of the same molecule?
Answer: 0.12 ± 0.02 %ID/g

Question: And the tissue uptake at 120 h ([1]; spleen, 120 h p.i., read-out: Biodistribution, Spleen)?
Answer: 0.07 ± 0.01 %ID/g

Question: And the tissue uptake at 1 h ([1]; stomach, 1 h p.i., read-out: Biodistribution, Stomach)?
Answer: 0.13 ± 0.02 %ID/g

Question: And the tissue uptake at 4 h ([1]; stomach, 4 h p.i., read-out: Biodistribution, Stomach)?
Answer: 0.59 ± 1.14 %ID/g

Question: And the tissue uptake at 24 h ([1]; stomach, 24 h p.i., read-out: Biodistribution, Stomach)?
Answer: 0.53 ± 0.48 %ID/g

Question: What about the tissue uptake at 120 h ([1]; stomach, 120 h p.i., read-out: Biodistribution, Stomach) of the same molecule?
Answer: 0.12 ± 0.16 %ID/g

Question: And the tissue uptake at 1 h ([1]; thyroid, 1 h p.i., read-out: Biodistribution, Thyroid)?
Answer: 0.22 ± 0.09 %ID/g

Question: And the tissue uptake at 4 h ([1]; thyroid, 4 h p.i., read-out: Biodistribution, Thyroid)?
Answer: 0.07 ± 0.01 %ID/g

Question: What about the tissue uptake at 24 h ([1]; thyroid, 24 h p.i., read-out: Biodistribution, Thyroid) of the same molecule?
Answer: 0.06 ± 0.01 %ID/g

Question: And the tissue uptake at 120 h ([1]; thyroid, 120 h p.i., read-out: Biodistribution, Thyroid)?
Answer: 0.05 ± 0.01 %ID/g

Question: And the excreta dose per gram or mL at 1 h ([1]; urine, 1 h p.i.)?
Answer: 227 ± 115 %ID/g

Question: And the excreta dose per gram or mL at 4 h ([1]; urine, 4 h p.i.)?
Answer: 49.1 ± 39.7 %ID/g

Question: What about the excreta dose per gram or mL at 24 h ([1]; urine, 24 h p.i.) of the same molecule?
Answer: 0.46 ± 0.31 %ID/g

Question: And the excreta dose per gram or mL at 120 h ([1]; urine, 120 h p.i.)?
Answer: 0.09 ± 0.06 %ID/g

Question: And the “Biodistribution, B16F10 tumour” value ([2]; 1 h p.i.)?
Answer: 4.49 ± 1.89 % ID/g

Question: What about the “Biodistribution, B16F10 tumour” value ([2]; 4 h p.i.) of the same molecule?
Answer: 4.42 ± 0.64 % ID/g

Question: What about the “Biodistribution, B16F10 tumour” value ([2]; 24 h p.i.) of the same molecule?
Answer: 2.04 ± 0.46 % ID/g

Question: And the “Biodistribution, Brain” value ([2]; 24 h p.i.)?
Answer: 0.00 ± 0.00 % ID/g

Question: What about the “Biodistribution, B16F10 tumour” value ([2]; 120 h p.i.) of the same molecule?
Answer: 0.49 ± 0.30 % ID/g

Question: And the “Biodistribution, Blood” value ([2]; 120 h p.i.)?
Answer: 0.00 ± 0.00 % ID/g

Question: And the “Biodistribution, Brain” value ([2]; 120 h p.i.)?
Answer: 0.00 ± 0.00 % ID/g

Question: What about the “Biodistribution, Seminal glands” value ([2]; 120 h p.i.) of the same molecule?
Answer: 0.00 ± 0.00 % ID/g

Source: patent US11395857B2, “Radiolabeled melanocortin 1 receptor-specific alpha-melanocyte-stimulating hormone analogues for imaging or therapy” (PROVINCIAL HEALTH SERVICES AUTHORITY, priority 2018, dated 2022)
